Laboratory results taken from PubChem BioAssay (NCI).
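Interpolation was linear, between the two tested concentrations surrounding the appropriate level; five concentrations were tested over 48 hours in 96-well plates. Abbreviation: GI50, concentration required for 50% inhibition of growth. At the TGI there is no net growth.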

Experiments:
Assay in all cases: inhibition of tumour cell growth, NCI panel, 48 h; in the data active = GI50 below about 0.43 µM; inactive = the rest
[1] = system: 786-0 renal
[2] = system: A498 renal
[3] = system: A549 NSCLC
[4] = system: CAKI-1 renal
[5] = system: CCRF-CEM leukemia
[6] = system: COLO 205 colon
[7] = system: DMS 114 small cell lung
[8] = system: EKVX NSCLC
[9] = system: HCT-116 colon
[10] = system: HCT-15 colon
[11] = system: HL-60(TB) leukemia
[12] = system: HOP-18 NSCLC
[13] = system: HOP-92 NSCLC
[14] = system: HT29 colon
[15] = system: IGROV1 ovarian
[16] = system: K-562 leukemia
[17] = system: KM12 colon
[18] = system: KM20L2 colon
[19] = system: LXFL 529 NSCLC
[20] = system: M14 melanoma
[21] = system: M19-MEL melanoma
[22] = system: MALME-3M melanoma
[23] = system: MOLT-4 leukemia
[24] = system: NCI-H23 lung
[25] = system: NCI-H522 lung
[26] = system: OVCAR-3 ovarian
[27] = system: OVCAR-4 ovarian
[28] = system: OVCAR-5 ovarian
[29] = system: OVCAR-8 ovarian
[30] = system: RPMI-8226 leukemia
[31] = system: RXF 393 renal
[32] = system: SF-268 CNS
[33] = system: SF-295 CNS
[34] = system: SF-539 CNS
[35] = system: SK-MEL-2 melanoma
[36] = system: SK-MEL-28 melanoma
[37] = system: SK-MEL-5 melanoma
[38] = system: SK-OV-3 ovarian
[39] = system: SN12C renal
[40] = system: SW-620 colon
[41] = system: TK-10 renal
[42] = system: U251 CNS
[43] = system: UACC-62 melanoma
[44] = system: ACHN renal
[45] = system: DLD-1 colon
[46] = system: DMS 273 small cell lung
[47] = system: HCC-2998 colon
[48] = system: HOP-62 NSCLC
[49] = system: LOX IMVI melanoma
[50] = system: NCI-H226 lung
[51] = system: NCI-H460 lung
[52] = system: SNB-19 CNS
[53] = system: SNB-75 CNS
[54] = system: SNB-78 CNS
[55] = system: UACC-257 melanoma
[56] = system: UO-31 renal
[57] = system: SR leukemia
[58] = system: BT-549 breast
[59] = system: DU-145 prostate
[60] = system: HS 578T breast
[61] = system: MCF7 breast
[62] = system: MDA-MB-231 breast
[63] = system: MDA-MB-435
[64] = system: MDA-N
[65] = system: NCI/ADR-RES ovarian
[66] = system: PC-3 prostate
[67] = system: T-47D breast

Cn1c(N)c(-c2c3ccccc3nc3ccccc23)c(=O)n(C)c1=O
> 100 µM: TGI [1] | TGI [2] | TGI [3] | TGI [4] | TGI [5] | TGI [6] | TGI [7] | TGI [8] | TGI [9] | TGI [10] | TGI [11] | TGI [12] | TGI [13] | TGI [14] | TGI [15] | TGI [16] | TGI [17] | TGI [18] | TGI [19] | TGI [20] | TGI [21] | TGI [22] | TGI [23] | TGI [24] | TGI [25] | TGI [26] | TGI [27] | TGI [28] | TGI [29] | TGI [30] | TGI [31] | TGI [32] | TGI [33] | TGI [34] | TGI [35] | TGI [36] | TGI [37] | TGI [38] | TGI [39] | TGI [40] | TGI [41] | TGI [42] | TGI [43]

COC(=O)c1cc(C)n(NC(=O)OC(C)(C)C)c1C
> 100 µM: TGI [1] | TGI [2] | TGI [3] | TGI [44] | TGI [4] | TGI [5] | TGI [6] | TGI [45] | TGI [7] | TGI [46] | TGI [8] | TGI [47] | TGI [9] | TGI [10] | TGI [11] | TGI [48] | TGI [14] | TGI [15] | TGI [16] | TGI [17] | TGI [18] | TGI [49] | TGI [19] | TGI [20] | TGI [21] | TGI [22] | TGI [23] | TGI [50] | TGI [24] | TGI [51] | TGI [25] | TGI [26] | TGI [28] | TGI [29] | TGI [30] | TGI [31] | TGI [32] | TGI [33] | TGI [34] | TGI [35] | TGI [36] | TGI [37] | TGI [38] | TGI [39] | TGI [52] | TGI [53] | TGI [54] | TGI [40] | TGI [41] | TGI [42] | TGI [55] | TGI [43] | TGI [56]

C[N+](C)(Cc1ccc(NC(=O)CCCC(=O)ON2C(=O)CCC2=O)cc1)c1ccccc1
1.8 µM: TGI [23]
2.29 µM: TGI [27]
18.2 µM: TGI [9]
> 100 µM: TGI [1] | TGI [2] | TGI [44] | TGI [4] | TGI [5] | TGI [45] | TGI [46] | TGI [10] | TGI [11] | TGI [14] | TGI [16] | TGI [17] | TGI [49] | TGI [19] | TGI [20] | TGI [21] | TGI [24] | TGI [25] | TGI [26] | TGI [29] | TGI [33] | TGI [35] | TGI [38] | TGI [39] | TGI [52] | TGI [40] | TGI [41] | TGI [42]
2.08 µM: TGI [3]
< 0.01 µM: TGI [12] | TGI [13] | TGI [22] | TGI [28] | TGI [34] | TGI [36] | TGI [57] | TGI [55] | TGI [43]
0.0133 µM: TGI [50]
inactive: GI50 [10] > 100 µM
2.42 µM: TGI [53]
3.93 µM: TGI [32]

NC(N)=NS(=O)(=O)c1ccc(NNc2c3ccccc3nc3c(C(=O)Nc4ccc(S(N)(=O)=O)cc4)cccc23)cc1
70.2 µM: TGI [58]
73.8 µM: TGI [13]
> 100 µM: TGI [1] | TGI [2] | TGI [3] | TGI [44] | TGI [4] | TGI [6] | TGI [59] | TGI [8] | TGI [47] | TGI [9] | TGI [10] | TGI [48] | TGI [15] | TGI [17] | TGI [20] | TGI [22] | TGI [62] | TGI [63] | TGI [64] | TGI [50] | TGI [24] | TGI [51] | TGI [25] | TGI [65] | TGI [26] | TGI [27] | TGI [28] | TGI [29] | TGI [66] | TGI [30] | TGI [31] | TGI [32] | TGI [33] | TGI [34] | TGI [36] | TGI [37] | TGI [38] | TGI [39] | TGI [52] | TGI [53] | TGI [57] | TGI [40] | TGI [67] | TGI [41] | TGI [55] | TGI [43] | TGI [56]
88.7 µM: TGI [5]
56.1 µM: TGI [14]
46.9 µM: TGI [35]
83.9 µM: TGI [42]
70.5 µM: TGI [61]
70.6 µM: TGI [23]
88 µM: TGI [60]
69.9 µM: TGI [16]
77.9 µM: TGI [11]
29.4 µM: TGI [49]
